Reference: US7279321B2, “Methods for increasing the resistance of a host cell to aromatic carboxylic acids” (priority 2003, dated 2007)
In brackets after ≈: the same amount, converted by molar mass.

How the values were obtained:
Format in all cases: cell-based
[1] = test system: E. coli strain DPD2455 (DPD2433 yhcS− with pDEW673 yhcQP); conditions: sodium salt of pHBA 80 μmoles/disk
Excerpt: (§1) Plasmids pDEW668, pDEW673, pDEW675, and a control plasmid, pTrcHis2TOPO®/lacZ (Invitrogen), were moved by transformation to E. coli strain DPD2433, selecting for Ampicillin resistance, to generate strains DPD3317, DPD2455, DPD2457, and DPD3316, respectively.

[2] = test system: E. coli strain DPD2457 (DPD2433 yhcS− with pDEW675 yhcRQ); conditions: sodium salt of pHBA 80 μmoles/disk
Excerpt: as §1

[3] = test system: E. coli strain DPD3316 (DPD2433 yhcS− with pTrcHis2TOPO®/lacZ control); conditions: sodium salt of pHBA 80 μmoles/disk
Excerpt: as §1

[4] = test system: E. coli strain DPD3317 (DPD2433 yhcS− with pDEW668 yhcRQP); conditions: sodium salt of pHBA 80 μmoles/disk
Excerpt: as §1

[5] = test system: E. coli strain DPD2459 (MG1655 + with pKK223-3 control plasmid); test: pHBA zone of growth inhibition, plasmid-carrying strains (Table 9)
Excerpt: as §1
(§2) The YhcP-Left primer was designed to contain a HindIII site and the YhcP-Right primer was designed to contain an EcoRI site for directional cloning of the resultant PCR product. […] The product of the PCR reaction was digested with restriction enzymes EcoRI and HindIII. The restriction digestion also contained pKK223-3 at an approximate molar ratio of 2:1 (insert:vector). Following incubation at 37° C. for 1.5 hours, the enzymes were inactivated by incubation at 65° C. for 20 minutes. The enzymes were subsequently removed by use a Qiaquick PCR purification kit (Qiagen) according to the vendor's instructions. The purified restriction products were ligated using T4 DNA ligase at 16° C. overnight. Following ligation, PstI and SmaI digestions were used to linearize the vector without insert DNA. The DNA from this selection digestion was used for transformation of E. coli strain JM105 (Amersham Pharmacia Biotech Inc., Piscataway, N.J.) using selection for Ampicillin resistance. Plasmid DNA from individual transformants was digested with EcoRI and HindIII. […] This plasmid and others were placed in various host strains by transformation and selection for Ampicillin resistance.

[6] = test system: E. coli strain DPD2462 (DPD2444 yhcP− with pKK223-3 control plasmid); test: as above
Excerpt: as §1, §2

[7] = test system: E. coli strain DPD2463 (DPD2444 yhcP− with pDEW659 yhcP); test: as above
Excerpt: as §1, §2

[8] = test system: E. coli strain DPD2464 (DPD2444 yhcP− with pDEW673 yhcQP); test: as above
Excerpt: as §1, §2

[9] = test system: E. coli strain DPD2465 (DPD2444 yhcP− with pDEW675 yhcRQ); test: as above
Excerpt: as §1, §2

[10] = test system: E. coli strain DPD2466 (DPD2433 yhcS− with pKK223-3 control plasmid); test: as above
Excerpt: as §1, §2

[11] = test system: E. coli strain DPD2467 (DPD2433 yhcS− with pDEW659 yhcP); test: as above
Excerpt: as §1, §2

[12] = test system: E. coli DPD1818 (tolC−) with pDEW668 (yhcRQP); test: pHBA MIC, 3:4 dilutions, Vogel-Bonner medium with 0.4% glucose; conditions: Escherichia coli, 21 h, read-out: pHBA MIC
Excerpt: (§3) An additional experiment is consistent with the above conclusion. This experiment used E. coli strain MG1655 and strains derived from it, DPD1818 (described above in this example) with a to/C::miniTn10 mutation, […] (described in example 3) with a yhcS::TN<Kan> mutation, and DPD2435 that carries both the to/C::miniTn10 and yhcS::TN<Kan> mutations. The latter strain was constructed using P1clr100Cm mediated transduction of DE112 with phage grown on strain DPD2410 (described in Example 3) and selection for kanamycin resistance. These four strains were each transformed with plasmids pTrcHis2TOPO®/lacZ (Invitrogen) for a control and pDEW668 that expresses the yhcRQP operon (described in Example 2). […] Vogel-Bonner minimal medium with 0.4% glucose was used. […] The inoculum was 50 μl of a 1:500 dilution into Vogel-Bonner medium with 0.4% glucose as a carbon source of overnight cultures of each of the plasmid-containing strains grown in the same medium except with addition of 25 μg/ml Ampicillin.

[13] = test system: E. coli DPD1818 (tolC−) with pTrcHis2TOPO®/lacZ (control); test: as above; conditions: Escherichia coli, 21 h, read-out: pHBA MIC
Excerpt: as §3

[14] = test system: E. coli DPD2433 (yhcS−) with pDEW668 (yhcRQP); test: as above; conditions: Escherichia coli, 21 h, read-out: pHBA MIC
Excerpt: as §3

[15] = test system: E. coli DPD2433 (yhcS−) with pTrcHis2TOPO®/lacZ (control); test: as above; conditions: Escherichia coli, 21 h, read-out: pHBA MIC
Excerpt: as §3

[16] = test system: E. coli DPD2435 (yhcS−, tolC−) with pDEW668 (yhcRQP); test: as above; conditions: Escherichia coli, 21 h, read-out: pHBA MIC
Excerpt: as §3

[17] = test system: E. coli DPD2435 (yhcS−, tolC−) with pTrcHis2TOPO®/lacZ (control); test: as above; conditions: Escherichia coli, 21 h, read-out: pHBA MIC
Excerpt: as §3

[18] = test system: E. coli MG1655 (+) with pDEW668 (yhcRQP); test: as above; conditions: Escherichia coli, MG1655, 21 h, read-out: pHBA MIC
Excerpt: as §3

[19] = test system: E. coli MG1655 (+) with pTrcHis2TOPO®/lacZ (control); test: as above; conditions: Escherichia coli, read-out: pHBA MIC, control plasmid, 21 hours at 37° C., sodium salt, highest tested 100 mM
Excerpt: as §3

[20] = test system: yhcP gene (co-transcribed with yhcQ and yhcR); test: expression of yhcP upon treatment of E. coli cells with aromatic carboxylic acids
[21] = Vogel-Bonner 0.4% glucose, average of two experiments

Q: What does the source list for `O=C(O)c1ccc(O)cc1` [pHBA, para-hydroxybenzoic acid]?
A: clarity of pHBA zone of growth inhibition [1]: turbid; pHBA zone of growth inhibition, mm diameter [1, 21]: 9.5 mm; clarity of pHBA zone of growth inhibition [2]: slightly turbid; pHBA zone of growth inhibition, mm diameter [2, 21]: 17.0 mm; clarity of pHBA zone of growth inhibition [3]: clear; pHBA zone of growth inhibition, mm diameter [3, 21]: 23.5 mm; clarity of pHBA zone of growth inhibition [4]: turbid; pHBA zone of growth inhibition, mm diameter [4, 21]: 9.8 mm; clarity of pHBA zone of growth inhibition [5]: turbid; pHBA zone of growth inhibition, mm diameter ([5]; tested as for Table 8): 10.0 mm; clarity of pHBA zone of growth inhibition [6]: clear; pHBA zone of growth inhibition, mm diameter ([6]; tested as for Table 8): 22.8 mm; clarity of pHBA zone of growth inhibition [7]: turbid; pHBA zone of growth inhibition, mm diameter ([7]; tested as for Table 8): 10.5 mm; clarity of pHBA zone of growth inhibition [8]: turbid; pHBA zone of growth inhibition, mm diameter ([8]; tested as for Table 8): 9.8 mm; clarity of pHBA zone of growth inhibition [9]: clear; pHBA zone of growth inhibition, mm diameter ([9]; tested as for Table 8): 21.8 mm; clarity of pHBA zone of growth inhibition [10]: clear; pHBA zone of growth inhibition, mm diameter ([10]; tested as for Table 8): 19.2 mm; clarity of pHBA zone of growth inhibition [11]: clear; pHBA zone of growth inhibition, mm diameter ([11]; tested as for Table 8): 18.8 mm; MIC [12]: 100 mM (≈ 13.8 mg/mL); MIC [13]: 56 mM (≈ 7.73 mg/mL); MIC [14]: 100 mM (≈ 13.8 mg/mL); MIC [15]: 18 mM (≈ 2.49 mg/mL); MIC [16]: 100 mM (≈ 13.8 mg/mL); MIC [17]: 13 mM (≈ 1.8 mg/mL); MIC [18]: 100 mM (≈ 13.8 mg/mL); MIC [19]: 100 mM; expression of the yhcP gene upon treatment of E. coli cells [20]: highly upregulated
